Broadly, the IC50 is the concentration needed to halve the response being measured. Usually Ki stands for a dissociation constant, usually derived from enzyme kinetics or from competition with a known ligand.

One compound from patent publication US20120165319A1, “INHIBITORS OF INTERLEUKIN-1 BETA CONVERTING ENZYME” (VERTEX PHARMACEUTICALS INCORPORATED, priority 1995, published 2012) can be followed below.

One assay relates to IL-1β, human PBMC. The experiment in a line: Human PBMC assay (Example 27): IL-1β production. The class given is cell-based. Conditions: Homo sapiens, PBMC; Table 22; read-out: Cell PBMC avg. IC50. The procedure:
Since the processing and secretion of biologically active IGIF is mediated by ICE, we compared the activity of a reversible ICE inhibitor (Ac-YVAD-CHO) on IL-1β and IFN-γ production in a peripheral blood mononuclear cell (PBMC) assay (Examples 27).
Human buffy coat cells were obtained from blood donors and peripheral blood mononuclear cells (PBMC) were isolated by centrifugation in LeukoPrep tubes (Becton-Dickinson, Lincoln Park, N.J.). PBMC were added (3×10^6/well) to 24 well Corning tissue culture plates and after 1 hr incubation at 37° C., non-adherent cells were removed by gently washing. Adherent mononuclear cells were stimulated with LPS (1 μg/ml) with or without ICE inhibitor in 2 ml RPMI-1640-10% FBS. After 16-18 hr incubation at 37° C., IGIF and IFN-γ were quantitated in culture supernatants by ELISA.

In a further assay the target is T1, ICE (Homo sapiens, UniProt P29466).
T1 sequence (P29466 120-297 limits assumed): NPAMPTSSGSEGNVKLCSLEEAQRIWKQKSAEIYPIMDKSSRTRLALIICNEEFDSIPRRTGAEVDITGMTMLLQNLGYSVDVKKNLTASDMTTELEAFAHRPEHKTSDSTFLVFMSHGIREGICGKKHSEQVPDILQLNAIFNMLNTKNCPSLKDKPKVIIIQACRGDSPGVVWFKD
T1 sequence (P29466 317-404 limits assumed): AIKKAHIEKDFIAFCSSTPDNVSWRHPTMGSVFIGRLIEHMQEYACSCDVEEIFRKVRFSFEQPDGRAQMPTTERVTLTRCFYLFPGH
The experiment in a line: Inhibition of IGIF processing by ICE inhibitors, measured in ICE inhibition assays (Example 27, Table 22). The class given is biochemical. The note with it: read-out: UV-Visible Ki. The protocol:
Inhibition of IGIF processing by ICE inhibitors was measured in ICE inhibition assays as described herein (see Example 1 and Table 22).

For `O=C[C@H](CC(=O)O)NC(=O)[C@@H]1CCCN2C(=O)CC[C@H](NC(=O)c3nccc4ccccc34)C(=O)N12` [Compound 412, [3S(1S,9S)]3-[6,10-Dioxo-9-(isoquinolin-1-oylamino)-1,2,3,4,7,8,9,10-octahydro-6H-pyridazino[1,2-a][1,2]diazepine-1-carboxamido]-4-oxobutanoic acid], the IC50 in the assay on IL-1β, human PBMC came to 0.58 µM. In addition, the Ki on ICE amounted to 0.0013 µM.
